Measurements reported in ChEMBL document CHEMBL3045429, “Exploration of antimicrobial potential of pyrazolo[3,4-b]pyridine scaffold bearing benzenesulfonamide and trifluoromethyl moieties” (2013).
Converted amounts (≈) assume the structure as drawn. The source made the active and inactive calls. The rule behind the calls is not given here.

Columns and labels:
Escherichia coli = test: Antibacterial activity against Escherichia coli MTCC 1652 assessed as growth inhibition at 4 mg/mL after 24 hr by agar well diffusion method; type: functional, organism-based
Bacillus subtilis [1] = test: Antibacterial activity against Bacillus subtilis MTCC 121 assessed as growth inhibition after 24 hr by agar well diffusion method; type: functional; conditions: MTCC 121, 24 h
Candida albicans [2] = test: Antifungal activity against Candida albicans MTCC 227 assessed as growth inhibition after 24 hr by agar well diffusion method; type: functional; conditions: MTCC 227, 24 h
Staphylococcus aureus [3] = test: Antibacterial activity against Staphylococcus aureus MTCC 96 assessed as growth inhibition after 24 hr by agar well diffusion method; type: functional; conditions: MTCC 96, 24 h
Candida albicans [4] = test: Antifungal activity against Candida albicans MTCC 227 assessed as growth inhibition at 4 mg/mL after 24 hr by agar well diffusion method; type: functional; conditions: MTCC 227, 24 h, read-out: DIZ
Staphylococcus aureus [5] = test: Antibacterial activity against Staphylococcus aureus MTCC 96 assessed as growth inhibition at 4 mg/mL after 24 hr by agar well diffusion method; type: functional; conditions: MTCC 96, 24 h, read-out: DIZ
Bacillus subtilis [6] = test: Antibacterial activity against Bacillus subtilis MTCC 121 assessed as growth inhibition at 4 mg/mL after 24 hr by agar well diffusion method; type: functional; conditions: MTCC 121, 24 h, read-out: DIZ
Saccharomyces cerevisiae [7] = test: Antifungal activity against Saccharomyces cerevisiae MTCC 170 assessed as growth inhibition at 4 mg/mL after 24 hr by agar well diffusion method; type: functional; conditions: MTCC 170, 24 h, read-out: DIZ
Saccharomyces cerevisiae [8] = test: Antifungal activity against Saccharomyces cerevisiae MTCC 170 assessed as growth inhibition after 24 hr by agar well diffusion method; type: functional; conditions: MTCC 170, 24 h
Pseudomonas aeruginosa = test: microbe, parasite or virus in culture; conditions: MTCC 741, 24 h, read-out: DIZ
Description: Antibacterial activity against Pseudomonas aeruginosa MTCC 741 assessed as growth inhibition at 4 mg/mL after 24 hr by agar well diffusion method

## NS(=O)(=O)c1ccc(-n2nc(-c3ccc(Cl)cc3)c3c(C(F)(F)F)cc(C(F)(F)F)nc32)cc1
Escherichia coli
  growth inhibition (GI): inactive
Bacillus subtilis [1]
  MIC: 128 µg/mL (≈ 246 µM)
Candida albicans [2]
  MIC: 64 µg/mL (≈ 123 µM)
Staphylococcus aureus [3]
  MIC: 128 µg/mL (≈ 246 µM)
Candida albicans [4]
  zone of inhibition at 4000 µg/mL: 16.3 mm
Staphylococcus aureus [5]
  zone of inhibition at 4000 µg/mL: 16.3 mm
Bacillus subtilis [6]
  zone of inhibition at 4000 µg/mL: 15.6 mm
Saccharomyces cerevisiae [7]
  zone of inhibition at 4000 µg/mL: 14.6 mm
Saccharomyces cerevisiae [8]
  MIC: 64 µg/mL (≈ 123 µM)

## O=C(O)c1cn(C2CC2)c2cc(N3CCNCC3)c(F)cc2c1=O [CIPROFLOXACIN]
Bacillus subtilis [1]
  MIC: 5 µg/mL (≈ 15.1 µM)
Staphylococcus aureus [3]
  MIC: 5 µg/mL (≈ 15.1 µM)
Pseudomonas aeruginosa
  zone of inhibition at 4000 µg/mL: 22 mm
Staphylococcus aureus [5]
  zone of inhibition at 4000 µg/mL: 26.6 mm
Bacillus subtilis [6]
  zone of inhibition at 4000 µg/mL: 24 mm

## COc1ccc(-c2cc(C(F)(F)F)c3c(-c4ccccc4)nn(-c4ccc(S(N)(=O)=O)cc4)c3n2)cc1
Escherichia coli
  growth inhibition (GI): inactive
Bacillus subtilis [1]
  MIC: 32 µg/mL (≈ 61 µM)
Candida albicans [2]
  MIC: 128 µg/mL (≈ 244 µM)
Staphylococcus aureus [3]
  MIC: 64 µg/mL (≈ 122 µM)
Candida albicans [4]
  zone of inhibition at 4000 µg/mL: 15.6 mm
Staphylococcus aureus [5]
  zone of inhibition at 4000 µg/mL: 19.3 mm
Bacillus subtilis [6]
  zone of inhibition at 4000 µg/mL: 21.6 mm
Saccharomyces cerevisiae [7]
  zone of inhibition at 4000 µg/mL: 14.6 mm
Saccharomyces cerevisiae [8]
  MIC: 256 µg/mL (≈ 488 µM)
